Earlier results on one sequence are cited in PMC9074375 (The journal of physical chemistry. B, 2022).

The test system of the series is malignant cells.

Consider FLGVLALLGYLAVRPFLPKKKQQK [NAF-1^44-67], for which the “permeation of the plasma membrane” value (malignant versus normal cells) is “selectively permeates the plasma membrane of malignant but not normal cells”. Besides, where the note is “peptide alone, without therapeutic cargo”, the “killing of cancer cells” value is “kill cancer cells by itself, without carrying additional therapeutic cargo and without damaging normal cells”.
